Test results reported in patent US7264808B2, “Synthetic peptide for neurological disorders” (priority 2000, dated 2007).

B1: V-NGF (protein)
chain: EDHPVHNLGEHSVCDSVSAWVTKTTATDIKGNTVTVMENVNLDNKVYKEYFFETKCKNPNPEPSGCRGIDSSHWNSYCTETDTFIKALTMEGNQASWRFIRIETACVCVITKKKGN

Legend:
NGF, NT-3 and bFGF = conditions: animals; brain areas associated with memory loss; cited from earlier work
[1] = cited from earlier work
Anti-V-NGF = experiment: ELISA titer of specimens with Anti-V-NGF; assay type: binding; conditions: in comparison to Anti-H-NGF
Protocol: (§1) Enzyme-Linked Immunosorbent Assay (ELISA): The binding affinity of Anti-ADESH made against ADESH consisting of ten amino acids (AD-10), to various specimens known to contain NGF, such as venoms, body fluids, saliva, serum, urine etc. was studied by ELISA. The ELISA binding of Anti-AD-10 was compared to Anti-NGF made against cobra venom. ELISA tests were performed in 96 well microtiter plate. The wells of the plate were coated with one concentration of antigen, diluted in PBS each well receiving 100 μL. The plate was incubated at room temperature (RT) for 16 to 18 hours after which it was three times (3×) with PBS. The wells of the plate were blocked with 0.25 ml/well of 3% Teleostean gelatin from cold water fish (Sigma) for ½ hour at RT. Anti-AD-10 and Anti-NGFs were diluted threefold in gelatin were added to the appropriate wells of ELISA plate, including positive and negative controls. The plate was incubated at 37° C. for 1 to 1.5 hours. After washing 3X times horseradish peroxidase conjugated with IgG made in goat (Sigma) was added and incubated for 1 hour. Finally, the plate was washed and reacted with O-Phenylenediamine Dihydrochloride (OPD) for color development. The test was after ½ hour for ELISA titers.

PC12 cells [2] = experiment: Neurite outgrowth on PC12 cells; assay type: cell-based, rat; conditions: for Neurites on PC12: concentration producing neurite outgrowth, read after 72 hours
Protocol: The trypsin digested fragments in various concentrations were tested for neurite out growth on PC12 cells. Tissue culture plate having 24 wells were seeded with 10^5 PC12 cells in serum free Dulbeco Modified Eagle's medium (DMEM). The results were read after 72 hours for neurite outgrowth. The fraction showing the most neurite outgrowth at the lowest concentration was sequenced for its amino acids composition. Sequencing was contracted out to the Protein Core Laboratory of Baylor College of Medicine, Houston, Tex.

Anti-AD-10 = experiment: ELISA titer of specimens with Anti-AD-10; assay type: binding, mice; conditions: for ELISA titer Anti-AD-10: Table II, specimen coated
Protocol: Adult Balb/C mice were used for immunization. The mice were used in compliance with the US Public Health Service Policy on humane care and use of animals. First injection consisted of the mixture 100 μg of each version of ADESH in 0.1 ml mixed with equal volume of Freund's complete adjuvant/mouse. The subsequent injections consisted of the mixture 100 μg of ADESH and equal volume of incomplete Freund's adjuvant/mouse. The mice were injected intramuscularly (IM) six times two weeks apart. At the end of the immunization the mice were bled through the ophthalmic veins and serum was separated.
as §1

PC12 cells [3] = experiment: Toxicity to PC12 cells; assay type: cell-based, rat; conditions: toxic concentration on PC12 cells

Molecule	neurite outgrowth on PC12 cells (in words) (PC12 cells [2])	ELISA titer Anti-AD-10 (Anti-AD-10)	Toxicity to PC12 (PC12 cells [3])	Neurites on PC12 (PC12 cells [2])	other results
O=C(CCn1cnc2c(=O)[nH]cnc21)Nc1ccc(C(=O)[O-])cc1.[K+] [AIT-082]	–	–	–	–	activation of genes producing neurotrophic factors in brain (NGF, NT-3 and bFGF): activate multiple genes in animals to produce three different neurotrophic factors; absorption and activity after oral administration [1]: rapidly absorbed and active after oral administration
ADESH: name of the inventive peptides; in b30 the synthetic ADESH consisting of ten amino acids (AD-10) (NLGEHPVCDS)	equally active as the fragment of the native NGF	–	–	–	reaction with Anti-V-NGF (in words) (Anti-V-NGF): react poorly
H-NGF saliva: NGF of human origin isolated from saliva	–	2700	–	–	–
H-NGF serum: NGF of human origin isolated from serum	–	2700	–	–	–
H-NGF urine: NGF of human origin isolated from urine	–	2700	–	–	–
N L G E H (NLGEH; SYNTHESIZED. CORRESPONDS TO FRAGMENT 7-11 OF SEQ. ID. NO. 1.) [AD-5, ID; NO: 4, first five amino acids]	biologically active in producing neurite outgrowth	600	>100 µg	2 µg	–
N L G E H P V C D S (NLGEHPVCDS; SYNTHESIZED. SIMILAR TO FRAGMENT 7-16 OF SEQ. ID. NO. 1.) [AD-10]	biologically active in producing neurite outgrowth	2700	>100 µg	1 µg	–
N L G E H P V C D S T D T W V (NLGEHPVCDSTDTWV; SYNTHESIZED. SIMILAR TO FRAGMENT 7-21 OF SEQ ID NO 1 ABOVE.) [AD-15, ID; NO: 2, first fifteen amino acids]	biologically active in producing neurite outgrowth	1800	>100 µg	1 µg	–
B1	–	900	5 µg	0.005 µg	reaction with Anti-AD-10 / Anti-ADESH (in words) (Anti-AD-10): react
